Experimental data: a melting point compilation (Tetko et al.; mined from patent text by program, amines drawn as free bases though some values may be those of a salt)

Row | melting point | SMILES
1 | 181 to 183 °C | CC12CCC3c4ccc(C(=O)O)cc4CCC3C1CCC2C(=O)CCc1ccccc1 (stereo not drawn)
2 | 57.6 °C | CC#CCOc1cc(N(C)c2ccccc2)ncn1
3 | 122 to 124 °C | COC(=O)c1ccc(-c2ccc(Cl)s2)nc1
4 | 115 °C | CC(C)(C)OC(=O)NCC1CCc2cc(C=O)ccc2C1 (stereo not drawn)
5 | 54 to 55 °C | COC(=O)C1(C(F)(F)CCCCCOc2ccc(Cl)cc2)CO1 (stereo not drawn)
6 | 113 to 115 °C | CC(=O)c1ccc(NC(=O)C(C)(C)C)nc1
7 | 72 to 73 °C | Cc1cc(OCCCC(=O)N(CCCCO)C2CCCCC2)cc(C=O)c1[N+](=O)[O-]
8 | 78 to 80 °C | CCOc1cc(C(CC(=O)OC)N2Cc3ccccc3C2=O)ccc1OC (stereo not drawn)
9 | 116 to 119 °C | CC(C)(OC(=O)c1ccccc1)c1nccc2ccccc12
10 | 148 to 150 °C | Cc1cccc2nc3sccn3c(=O)c12
11 | 138 to 140 °C | N#Cc1cc2c(s1)-c1ccccc1OC2c1ccccc1 (stereo not drawn)
12 | 123 to 124 °C | CS(=O)c1ccc(Nc2ccn(-c3ccccc3)n2)cc1 (stereo not drawn)
13 | 122 °C | COc1ccc([C@H](CC(=O)O)N2CCN(CCCc3ccc4c(n3)NCCC4)C2=O)cn1
14 | 190 °C | COc1ccc2ccc(N3C(=O)c4ccccc4C3OC(=O)CCCNC(C)=O)nc2n1 (stereo not drawn)
15 | 146 to 148 °C | Cc1ccc2c(c1)C(=O)CCC21CCC(=O)N(C)C1=O (stereo not drawn)
16 | 190 to 192 °C | COc1cc(Cc2cnc(NOC3CCCCO3)nc2NO)cc(OC)c1OC (stereo not drawn)
17 | 148 to 151 °C | CC(C)(C)NC(=O)N1C(=O)[C@H](O)[C@@H]1c1ccccc1
18 | 142 to 143 °C | O=C(CCCN1CCC(c2noc3cc(F)ccc23)CC1)c1cc2c(s1)CCCNC2=O
19 | 219 to 220 °C | Cc1c(C=O)c2cc(F)ccc2n1-c1ccc(OCc2ccccc2)cc1
20 | 168 to 171 °C | Nc1ccc2c(c1)C(=O)CC2
21 | 142 to 143 °C | CCOc1nn(Cc2ccc(OC3CCN(c4ccccn4)CC3)cc2)cc1CCC(=O)O
22 | 265 to 268 °C | COc1ccc(C(=O)Nc2ccc(C(=O)Nc3ccccc3)cc2)cc1C12CC3CC(CC(C3)C1)C2
23 | 220 to 222 °C | Cn1nc(-c2nc(Br)c(N)nc2-c2ccccc2)ccc1=O
24 | 112 to 113 °C | O=C(CCCCSc1ccc(O)cc1)N1CCOCC1

Row | melting point | SMILES
25 | 110 to 111 °C | Cc1ccccc1CC(=O)N1CCN(c2nccs2)CC1
26 | 178 °C | CNC(=O)C=C1CC2(CCCC2)c2ccccc21
27 | 186 to 187 °C | CCOc1ccccc1-c1ncc(C#N)c(=O)[nH]1
28 | 112 to 114 °C | CC(=CCO)c1ccc(-c2ccccc2)cc1
29 | 76 to 77 °C | COC(=O)[C@@H](NC(=O)OC(C)(C)C)[C@@H](S)c1ccccc1
30 | 110 to 111 °C | Cc1c(C(=O)c2cccnc2)sc2cc(Br)ccc12
31 | 148 °C | O=C(c1nc(-c2ccccc2)nc2ccccc12)N1CCOCC1
32 | 200 to 201 °C | CCC(C)(NC(=O)C1=C(C(=O)Nc2cc(OC3CCCC3)c(Cl)cc2F)CCCC1)c1ccc(Cl)cc1 (stereo not drawn)
33 | 128 to 130 °C | CN(C)CC(c1ccc(OC(=O)c2ccccc2)cc1)C1(OC(=O)c2ccccc2)CCCCC1 (stereo not drawn)
34 | 85 to 88 °C | CN(CCCO)C(=O)c1c2ccc(Cl)cc2c(-c2ccccc2)n1C
35 | 201 to 202 °C | Cc1ccc(C(=O)Nc2ccc(N3CCCCC3)c(C(F)(F)F)c2)cc1Nc1nccc(-c2cccnc2)n1
36 | 147 to 149 °C | COc1cc2onc(C3CCN(CCCn4c(=O)[nH]c5ccccc54)CC3)c2cc1OC
37 | 105 to 108 °C | O=C1c2cccc3cccc(c23)C(=O)N1CCCCO
38 | 157 to 159 °C | Cn1c(-c2ccccc2S(C)=O)nc2ccccc21 (stereo not drawn)
39 | 48 to 51 °C | CC(Br)CCCCN1C(=O)c2ccccc2C1=O (stereo not drawn)
40 | 237 to 238 °C | Cn1c2nc3ccccc3nc2c2cccc(CO)c21
41 | 197 to 198 °C | COc1ccc(Cl)cc1C(=O)NCCc1ccc(C=CC(=O)O)cc1
42 | 141 to 142 °C | CCC(CC)N(O)C(=O)Nc1ccccc1Oc1ccccc1
43 | 100 °C | CCOC(=O)c1ccc(OCC2(O)CCN(Cc3ccccc3)CC2)cc1
44 | 150 to 152 °C | CCCc1ccc(S(=O)(=O)NN2CCOCC2)cc1
45 | 100 to 102 °C | CCN(CC)C(=O)c1ccc(C(=O)N2CCN(c3ncccc3NC(C)C)CC2)nc1
46 | 179 to 182 °C | Cc1ccccc1NC(=O)Nc1ccc(C(=O)N2CCCCc3sccc32)cc1
47 | 214 °C | Nc1ccc(Cl)c(C(=O)NCC23CC4CC(CC(C4)C2)C3)c1
48 | 128 to 130 °C | COCCn1nc2ccccc2c1C(=O)NCC1CCN(CCc2ccccc2F)CC1

Second part, the compound before the results:

Row | SMILES | melting point
49 | COC(=O)CCCC(=O)c1ccc(CCNC(C)=O)cc1 | 107 to 108 °C
50 | Oc1ccc(N2CCN(CC[C@H]3CC[C@H](Nc4ncccn4)CC3)CC2)cc1 | 192 to 194 °C
51 | CCCCCc1ccc(-c2c(C(C)C)ccc(CO)c2C(C)C)nc1 | 81 to 82 °C
52 | COC(=O)c1nc2cccc(OC)c2c(O)c1C(=O)OC | 184 to 186 °C
53 | CCOC(=O)CCCn1c(Nc2cnc(N(C)C)cc2C)nc2c(Cl)ccc(C(CC)CC)c21 | 158 to 159 °C
54 | C#CCOc1ccc2c(C)cc(=O)oc2c1C(=O)C=Cc1cccc(OC)c1 | 154 to 156 °C
55 | O=C(Nc1ccc(C(F)(F)F)cc1)C1=NN(c2ccccc2)CC1c1ccc(F)cc1 (stereo not drawn) | 184 °C
56 | O=C(O)COc1ccc2c(=O)c3ccc(Cl)cc3oc2c1Cl | 270 °C
57 | O=c1[nH]c2cc(Cl)ccc2c(=O)c2c(-c3ccccc3)n[nH]c12 | 328 to 331 °C
58 | NNC1=NS(=O)(=O)c2cc(Cl)ccc21 | 277 °C
59 | CNC(=O)c1cc2nc(C(F)(F)F)ccc2c(C)c1NC(=O)c1cc(C(F)(F)F)nn1-c1ncccc1Cl | 227 to 230 °C
60 | N#Cc1cccc(-c2ccc(OC[C@@H](O)CCc3cccnc3)cc2)c1 | 74 to 75 °C
61 | Cc1oc(-c2ccccc2)nc1CCOc1ccc(CCl)cc1 | 88 to 90 °C
62 | CC1Sc2c(C(=O)O)c(=O)c3cc(F)c(N4CCN(C)CC4)c(F)c3n21 (stereo not drawn) | 238 °C
63 | OC(c1ccccc1)c1cc2ccccc2cc1C(O)c1ccccc1 (stereo not drawn) | 145 °C
64 | Cc1cc(C(=NO)c2cccs2)cc(C)c1OCC(=O)O | 152 °C
65 | COc1ccc(C(=O)c2ccc(-c3ccc(Cl)cc3)nc2)cc1OC | 168 to 170 °C
66 | CCC1CCCCN1CCC(=O)Nc1ccc2c(=O)c3ccc(NC(=O)CCN4CCCCC4CC)cc3[nH]c2c1 (stereo not drawn) | > 320 °C
67 | Cc1ccc(-c2c(NS(=O)(=O)c3ccc(C(C)(C)C)cc3)nc(S(C)(=O)=O)nc2OCCOCc2ccccc2)cc1 | 129 to 130 °C
68 | Cc1cn(-c2nc(C)cc3[nH]c(=O)ccc23)cn1 | 307 to 308 °C
69 | COc1ccc(Nc2cc(-c3ccccc3)nc(Nc3ccc(OC)c(Cl)c3)n2)cc1Cl | 250 to 254 °C
70 | CC#CCOc1ccc(OCC(=O)NO)cc1 | 100 to 105 °C
71 | CCCCCCCCCCCCC(=O)NN | 101 to 104 °C
72 | O=P(O)(O)C(O)(CCCc1ccc(Cl)cc1)P(=O)(O)O | 181 °C
73 | CS(=O)(=O)c1ccc(-c2c(-c3ccc(F)cc3)c(OCC(=O)c3ccc(F)cc3)nn2CC(=O)c2ccc(F)cc2)cc1 | 194 to 196 °C
74 | CCOc1cc(OCc2cccc(OCc3nc(-c4ccccc4)oc3C)c2)ccc1CCC(=O)O | 122 to 123 °C
75 | O=C(CN1c2ccccc2Cn2c1nc(-c1ccncn1)cc2=O)c1ccccc1 | 263 to 265 °C
76 | Cc1cc(OC=CCC(F)(F)F)nc(Oc2cc(C(F)(F)F)nn2C)c1 | 56 °C

Row | SMILES | melting point
77 | CC(C)(C)C(C)(C)Nc1nc(Cl)nc(NC(C)(C)C(C)(C)C)n1 | 129 to 131 °C
78 | COc1ccc(S(=O)(=O)C(c2cc(F)ccc2F)c2cc(N)ncc2Cl)cc1 (stereo not drawn) | 153 to 155 °C
79 | CCOC(=O)CCCOc1ccc(S(=O)(=O)n2c(=O)[nH]c3cc(Cl)ccc3c2=O)cc1 | 167 to 169 °C
80 | COc1ccc2[nH]cc(C#N)c2c1 | 147 °C
81 | Cc1cc(O)n2nc(CBr)nc2n1 | 217 to 222 °C
82 | COc1ccc(-c2nnc3c4ccccc4c(Nc4cccc(-c5nn[nH]n5)c4)nn23)cc1 | 305 to 308 °C
83 | COc1cc(CN(O)C(N)=O)ccc1OCc1nc(-c2ccccc2)oc1C | 138 to 139 °C
84 | COc1ccc2cc(C(C)C(=O)OCC(=O)NCCCO[N+](=O)[O-])ccc2c1 (stereo not drawn) | 51 to 53 °C
85 | COc1ncc(Br)cc1C(O)C=Cc1ccc(Cl)c(Cl)c1 (stereo not drawn) | 149 to 150 °C
86 | CCC=NNC(=O)c1cc(OC)cc(Oc2cccc(C(F)(F)F)c2)n1 | 154 to 155 °C
87 | NC(=S)/C=C/c1cc([N+](=O)[O-])ccc1Cl | 236 to 238 °C
88 | COC(=N)COc1ccc(OC)cc1 | 95 to 96 °C
89 | CC(C)(C)OC(=O)c1ncn2c1[C@@H]1CCCN1C(=O)c1c(Cl)cccc1-2 | 216 to 217 °C
90 | O=C(O)c1ccoc1Cl | 138 to 141 °C
91 | O=C(CNC(=O)CSC(=O)c1ccccc1)CNC(=O)CSC(=O)c1ccccc1 | 134 to 140 °C
92 | CCOCc1cc2c(N)cccc2cn1 | 95 °C
93 | Cc1cc(Oc2ncc(Cl)cc2Cl)cc(C)c1N=C=NC(C)(C)C | 69 to 71 °C
94 | CSc1ccc2c(C3=C(c4cn(C)c5cc([N+](=O)[O-])ccc45)C(=O)NC3=O)cn(C)c2c1 | 273 to 275 °C
95 | CC(C)N(Cc1ccccc1)c1ncnc2nc[nH]c12 | 200 to 202 °C
96 | O=CN1CCn2nccc21 | 78 to 80 °C
97 | CC(C)c1ccc(N)nn1 | 131 to 132 °C
98 | Cc1nc(NC(=N)N)sc1C=O | 176 to 178 °C
99 | CCOc1ccc([N+](=O)[O-])cn1 | 85 to 88 °C
100 | CS(=O)(=O)c1ccc(-c2nc(C(F)(F)F)nc(NN)c2-c2ccccc2)cc1 | 272 to 275 °C
101 | Cc1cc(C)cc(-c2cnn3c(-c4cccc(-c5nnn(CCN6CCCCC6)n5)c4)ccnc23)c1 | 66 °C
102 | Fc1cccc(COc2ccc(I)cc2)c1 | 48 °C
103 | O=C1CN(CCC(O)C2CCCCC2)C(=O)N1 (stereo not drawn) | 97 to 99 °C
